Patent US20190274303A1, “USE OF A DIFLUORO-(2-HYDROXYPROPYL)PYRIDINE COMPOUND AS A FUNGICIDE FOR CONTROL OF PHYTOPATHOGENIC FUNGI OF BARLEY” (Dow AgroSciences LLC, priority 2016, published 2019)

Experiments:
Type in all cases: in vivo
[1] = test system: Puccinia hordei (PUCCHD); assay: Field assessment of barley rust; details: for Percent Control PUCCHD: based on AUDPC, winter barley, field
Procedure: Field Assessment of Puccinia hordei (PUCCHD) in Barley:
A fungicidal treatment containing Compound I was assessed against barley rust (PUCCHD) in two separate field trials. In each trial, fungicidal treatments of Compound I were applied using two separate adjuvant systems. In the first system, an EC formulation of compound I was tank mixed with Agnique BP-420 (50%) at an active:adjuvant ratio of 1:2. The second adjuvant system was an SC formulation of Compound I tank mixed with Agnique BP-420 EW (38.5%) at an active:adjuvant ratio of 1:2 and Agnique FOH TDA-9 (30% w/w) applied at 0.33% V/V. Both the EC and SC formulation was sprayed on barley plants at rates of 25, 50, 75, 100, 150, 200 and 250 grams active ingredient per hectare (g ai/ha). Fungicidal treatments were applied at B39 (early curative, 1% infection on leaf 1) growth stage of winter barley (HORVW, Maris Otter and Lomerit variety) under natural infection of PUCCHD. The treatment was part of an experimental trial designed as a randomized complete block with four replications.
Disease severity was recorded as a percentage of visual diseased foliage on whole plot. Barley rust infection was recorded following EPPO PP1/26 guideline prescriptions. Area under the disease progress curve (AUDPC) was calculated for each plot using the sets of recorded severity data. Relative AUDPC (% control based on AUDPC) was calculated as percent of the nontreated control.
(§1) In each case of the following Tables, the rating scale of percent control based on AUDPC is as follows: […]

[2] = test system: Pyrenophora teres (PYRNTE); assay: Field assessment of net blotch of barley; details: for Percent Control PYRNTE: based on AUDPC, barley, field
Procedure: Field Assessment of Pyrenophora teres (PYRNTE) in Barley:
A fungicidal treatment containing Compound I was assessed against net blotch of barley (PYRNTE) in two separate field trials. In each trial, fungicidal treatments of Compound I were applied using two separate adjuvant systems. In the first system, an EC formulation of compound I was tank mixed with Agnique BP-420 (50%) at an active:adjuvant ratio of 1:2. The second adjuvant system was an SC formulation of Compound I tank mixed with Agnique BP-420 EW (38.5%) at an active:adjuvant ratio of 1:2 and Agnique FOH TDA-9 (30% w/w) applied at 0.33% V/V. Both the EC and SC formulation was sprayed on barley plants at rates of 25, 50, 75, 100, 150, 200 and 250 grams active ingredient per hectare (g ai/ha). In the first trial, fungicidal treatments of Compound I were applied at B39 (early curative, 1% infection on leaf 1) growth stage of winter barley (HORVW, Lomerit variety) under natural infection of PYRNTE. The treatment was part of an experimental trial designed as a randomized complete block with four replications. In the second trial, fungicidal treatments of Compound I were applied at B37 (protectant, 1% infection on leaf 4) growth stage of spring barley (HORVS, Scarlett variety) under natural infection of PYRNTE. The treatment was part of an experimental trial designed as a randomized complete block with four replications.
Disease severity was recorded as a percentage of visual diseased foliage on whole plot. Net blotch of barley infection was recorded following EPPO PP1/26 guideline prescriptions. Area under the disease progress curve (AUDPC) was calculated for each plot using the sets of recorded severity data. Relative AUDPC (% control based on AUDPC) was calculated as percent of the nontreated control.
as §1

[3] = test system: Rhyncosporium secalis (RHYNSE); assay: Field assessment of barley leaf scald, Trial 1 (EC formulation alone or with adjuvants); details: for % Control RHYNSE: based on AUDPC, winter barley, field, EC
Procedure: Field assessment of Rhyncosporium secalis (RHYNSE) in barley:
Trial 1: A fungicidal treatment containing Compound I was assessed against barley scald (RHYNSE) in two separate field trials. In the first trial, a fungicidal treatment containing an EC formulation of compound I by itself and in combination with two separate adjuvants was sprayed on barley plants at rates of 50, 100 and 150 grams active ingredient per hectare (g ai/ha). Fungicidal treatments were applied at B47-51 (curative, 3% infection on leaf 2) growth stage of winter barley (HORVW, Lomerit variety) under natural infection of RHYNSE. The treatment was part of an experimental trial designed as a randomized complete block with four replications and a plot of approximately 2×3 m. Compound I was applied at water volume of 200 L/ha, using a backpack precision plot sprayer (BICYCAIR, Flat Fan Air Assisted Nozle) and pressurized at 220 kPa.
Disease severity was recorded as a percentage of visual diseased foliage on whole plot. Barley leaf scald infection was assessed several times during the growing season with a final assessment 39 days after application of compound I. The disease infection was recorded following EPPO PP1/26 guideline prescriptions. Area under the disease progress curve (AUDPC) was calculated for each plot using the sets of recorded severity data. Relative AUDPC (% control based on AUDPC) was calculated as percent of the nontreated control.
as §1

[4] = 25 g ai/ha, EC + Agnique BP-420
[5] = 25 g ai/ha, SC + Agnique BP-420 EW and Agnique FOH TDA-9
[6] = 50 g ai/ha, EC + Agnique BP-420
[7] = 75 g ai/ha, EC + Agnique BP-420
[8] = 75 g ai/ha, SC + Agnique BP-420 EW and Agnique FOH TDA-9
[9] = 100 g ai/ha, EC + Agnique BP-420
[10] = 100 g ai/ha, SC + Agnique BP-420 EW and Agnique FOH TDA-9
[11] = 150 g ai/ha, EC + Agnique BP-420
[12] = 150 g ai/ha, SC + Agnique BP-420 EW and Agnique FOH TDA-9
[13] = 200 g ai/ha, EC + Agnique BP-420
[14] = 200 g ai/ha, SC + Agnique BP-420 EW and Agnique FOH TDA-9
[15] = 250 g ai/ha, EC + Agnique BP-420
[16] = 250 g ai/ha, SC + Agnique BP-420 EW and Agnique FOH TDA-9

N#Cc1ccc(Oc2ccc(C(F)(F)C(O)(Cn3ncnc3S)c3ccc(F)cc3F)nc2)cc1 (stereo not shown) [Compound I, 4-((6-(2-(2,4-difluorophenyl)-1,1-difluoro-2-hydroxy-3-(5-mercapto-1H-1,2,4-triazol-1-yl)propyl)pyridin-3-yl)oxy)benzonitrile]
fungicidal effect on Puccinia Hordei ([1]; barley rust, general statement): significant fungicidal effect
Percent Control PUCCHD [1, 4]: B (51-74)
Percent Control PUCCHD [1, 5]: B (51-74)
Percent Control PUCCHD [1, 6]: B (51-74)
Percent Control PUCCHD ([1]; 50 g ai/ha, Sc (SC + Agnique BP-420 EW and Agnique FOH TDA-9)): B (51-74)
Percent Control PUCCHD [1, 7]: A (75-100)
Percent Control PUCCHD [1, 8]: B (51-74)
Percent Control PUCCHD [1, 9]: A (75-100)
Percent Control PUCCHD [1, 10]: A (75-100)
Percent Control PUCCHD [1, 11]: A (75-100)
Percent Control PUCCHD [1, 12]: A (75-100)
Percent Control PUCCHD [1, 13]: A (75-100)
Percent Control PUCCHD [1, 14]: A (75-100)
Percent Control PUCCHD [1, 15]: A (75-100)
Percent Control PUCCHD [1, 16]: A (75-100)
Percent Control PYRNTE [2, 4]: D (1-25)
Percent Control PYRNTE [2, 5]: D (1-25)
Percent Control PYRNTE [2, 6]: D (1-25)
Percent Control PYRNTE ([2]; 50 g ai/ha, SC + Agnique BP-420 EW and Agnique FOH TDA-9): D (1-25)
Percent Control PYRNTE [2, 7]: D (1-25)
Percent Control PYRNTE [2, 8]: D (1-25)
Percent Control PYRNTE [2, 9]: D (1-25)
Percent Control PYRNTE [2, 10]: C (26-50)
Percent Control PYRNTE [2, 11]: C (26-50)
Percent Control PYRNTE [2, 12]: C (26-50)
Percent Control PYRNTE [2, 13]: C (26-50)
Percent Control PYRNTE [2, 14]: B (51-74)
Percent Control PYRNTE [2, 15]: B (51-74)
Percent Control PYRNTE [2, 16]: B (51-74)
fungicidal effect on Pyrenophora teres ([2]; net blotch of barley, general statement): significant fungicidal effect
% Control RHYNSE ([3]; 50 g ai/ha, Agnique BP-420 (50% w/w at 0.15% v/v)): C (26-50)
% Control RHYNSE ([3]; 50 g ai/ha, Agnique BP-420 (50% w/w at 0.3% v/v)): B (51-74)
% Control RHYNSE ([3]; 50 g ai/ha, Agnique SBO-10 (0.15% v/v)): C (26-50)
% Control RHYNSE ([3]; 50 g ai/ha, adjuvant None): C (26-50)
% Control RHYNSE ([3]; 100 g ai/ha, Agnique BP-420 (50% w/w at 0.15% v/v)): B (51-74)
% Control RHYNSE ([3]; 100 g ai/ha, Agnique BP-420 (50% w/w at 0.3% v/v)): B (51-74)
% Control RHYNSE ([3]; 100 g ai/ha, Agnique SBO-10 (0.15% v/v)): B (51-74)
% Control RHYNSE ([3]; 100 g ai/ha, adjuvant None): C (26-50)
% Control RHYNSE ([3]; 150 g ai/ha, Agnique BP-420 (50% w/w at 0.15% v/v)): B (51-74)
% Control RHYNSE ([3]; 150 g ai/ha, Agnique BP-420 (50% w/w at 0.3% v/v)): B (51-74)
% Control RHYNSE ([3]; 150 g ai/ha, Agnique SBO-10 (0.15% v/v)): B (51-74)
% Control RHYNSE ([3]; 150 g ai/ha, adjuvant None): C (26-50)
fungicidal effect on Rhyncosporium secalis ([3]; leaf scald of barley, general statement): significant fungicidal effect
